Measured values taken from US6172112A, “Retinoids and use thereof” (priority 1999, dated 2001).
Read-outs that look alike come from different tables or passages of the source.

Tests used:
JMML cells = experiment: inhibition of JMML spontaneous CFU-GM colony formation; settings: Homo sapiens
Description: Mononuclear cells were separated by density gradient centrifugation, washed, and frozen in aliquots. […] No growth factors or other exogenous stimuli were added to the cultures. UAB retinoids and retinoic acid isomers were dissolved in either 100% ethanol or DMSO. Appropriate dilutions were made, and controls using the respective ethanol or DMSO concentration were set up in parallel. Varying doses of retinoids were added only once, 24 hours after initiation of the soft agar assays, by pipetting the retinoid solution on top of the soft agar and allowing the solution to enter the agar and interact with the cells by diffusion. The cultures were incubated for 14 days at 37° C. in a humidified atmosphere with 5% CO2.

[1] = test system: MNU-induced mammary cancers; experiment: efficacy on MNU-induced mammary cancers; type: in vivo, Sprague-Dawley rats; settings: 200 mg/kg diet
NB4 cells [2] = experiment: retinoid induction of differentiation of NB4 cells (NBT); type: cell-based, Human
Description: NB4 cells were obtained from Dr. Waxman after he received them from Dr. M. Lanotte. […] The cell were grown at 37° C. in a humidified atmosphere of 5% CO2 in air. Cell density was estimated on an electronic particle counter (Coulter electronic, Hialeah, Fla.) and cell viability with trypan bleu dye exclusion.
(§1) Human leukemia cell line HL-60 and NB4 were used for measuring the ability of retinoids to induce terminal differentiation. Both cell lines are predominantly promyelocytes and are induced by retinoic acid to mature to cells with many characteristics of mature granulocytes. The induction of this differentiation is the basis for assaying one of the biological activities of retinoic acid analogues. For the differentiation assay, HL-60 or NB4 cells were grown in nutrient medium with fetal bovine serum as detailed by Breitman (15).
(§2) The percentage of cells that gained this marker was measured microscopically. The percentage of positive cells was then plotted as a function of the retinoid concentration to determine ED50 and ED30 values used in the formation of isoboles.

NB4 cells [3] = experiment: retinoid metabolism in NB4 cells; type: in vitro ADME
[4] = body weight in MNU mammary cancer study
in vivo toxicity = settings: preliminary data
HL-60 cells = experiment: retinoid induction of differentiation of HL-60 cells (NBT); type: cell-based; settings: Homo sapiens, HL-60, 96 h; 4-day induction of differentiation; read-out: ED50 (nM) HL-60
Description: as §1, §2

[5] = read-out: normalized percent inhibition of CFU-GM colony growth, patient J83 (%)
[6] = read-out: normalized percent inhibition of CFU-GM colony growth, patient J84 (%)

CC(=C/C=C/C(C)=C/C(=O)O)/C=C1\CCCc2ccccc21 [(9Z)-UAB30, (2E,4E,6E,8E)-8-(3',4'-Dihydro-1'(2'H)-naphthalen-1'-ylidene)3,7-dimethyl-2,4,6-octatrienoic acid]
inhibition at 0.1 µM (JMML cells; [5]): 76%
inhibition at 1 µM (JMML cells; [5]): 79%
inhibition at 0.01 µM (JMML cells; [6]): 3%
inhibition at 0.1 µM (JMML cells; [6]): 44%
inhibition at 1 µM (JMML cells; [6]): 39%
growth of MNU-induced mammary cancers [1]: inhibited the growth of the MNU-induced mammary cancers
average mammary tumor weight/rat ([1]; 26 days post MNU): 0.05 grams
average mammary tumor weight/rat ([1]; 33 days post MNU): 0.05 grams
average mammary tumor weight/rat ([1]; 40 days post MNU): 0.10 grams
average mammary tumor weight/rat ([1]; 47 days post MNU): 0.30 grams
average mammary tumor weight/rat ([1]; 54 days post MNU): 0.45 grams
average mammary tumor weight/rat ([1]; 61 days post MNU): 0.55 grams
average mammary tumor weight/rat ([1]; 68 days post MNU): 0.55 grams
average mammary tumor weight/rat ([1]; 75 days post MNU): 0.55 grams
average mammary tumor weight/rat ([1]; 82 days post MNU): 0.70 grams
average mammary tumor weight/rat ([1]; 89 days post MNU): 0.90 grams
average mammary tumor weight/rat ([1]; 96 days post MNU): 1.00 grams
average mammary tumor weight/rat ([1]; 103 days post MNU): 1.35 grams
average mammary tumor weight/rat ([1]; 110 days post MNU): 1.75 grams
average mammary tumor weight/rat ([1]; 117 days post MNU): 2.00 grams
average mammary tumor weight/rat ([1]; 124 days post MNU): 2.20 grams
average mammary tumor weight/rat ([1]; 131 days post MNU): 2.35 grams
EC30 (NB4 cells [2]; Homo sapiens, NB-4, 72 h, read-out: ED30 NB4 cell differentiation): > 10000 µM
EC50 (NB4 cells [2]; Homo sapiens, NB-4, 96 h, read-out: ED50 (nM) NB4): 10000 nM
NB4 cell differentiation (NB4 cells [2]; retinoid alone): no effect
metabolism / metabolic stability (NB4 cells [3]): metabolically stable for 5 days
overall body growth ([4]; 200 mg/kg diet): no obvious effect
average body weight/rat ([4]; 43 days of age, 200 mg/kg diet from day 53): 133 grams
average body weight/rat ([4]; 57 days of age, 200 mg/kg diet): 158 grams
average body weight/rat ([4]; 64 days of age, 200 mg/kg diet): 174 grams
average body weight/rat ([4]; 71 days of age, 200 mg/kg diet): 188 grams
average body weight/rat ([4]; 78 days of age, 200 mg/kg diet): 197 grams
average body weight/rat ([4]; 85 days of age, 200 mg/kg diet): 203 grams
average body weight/rat ([4]; 92 days of age, 200 mg/kg diet): 210 grams
average body weight/rat ([4]; 99 days of age, 200 mg/kg diet): 211 grams
average body weight/rat ([4]; 106 days of age, 200 mg/kg diet): 215 grams
average body weight/rat ([4]; 113 days of age, 200 mg/kg diet): 216 grams
average body weight/rat ([4]; 120 days of age, 200 mg/kg diet): 218 grams
average body weight/rat ([4]; 127 days of age, 200 mg/kg diet): 223 grams
average body weight/rat ([4]; 134 days of age, 200 mg/kg diet): 227 grams
average body weight/rat ([4]; 141 days of age, 200 mg/kg diet): 236 grams
average body weight/rat ([4]; 149 days of age, 200 mg/kg diet): 234 grams
average body weight/rat ([4]; 155 days of age, 200 mg/kg diet): 236 grams
average body weight/rat ([4]; 162 days of age, 200 mg/kg diet): 238 grams
average body weight/rat ([4]; 169 days of age, 200 mg/kg diet): 242 grams
average body weight/rat ([4]; 176 days of age, 200 mg/kg diet): 243 grams
average body weight/rat ([4]; 183 days of age, 200 mg/kg diet): 244 grams
toxicity (in vivo toxicity): much less toxic than 9-cis-retinoic acid
EC50 (HL-60 cells): 8000 nM
